The target in the assay is recombinant human NSD2 (amino acids 2-end) with N-terminal His tag (Homo sapiens (Human), UniProt O96028). In words: NSD2 inhibitory activity, modified RBC HotSpot HMT Assay. The assay is classed as biochemical. The settings on record: NSD2 2 nM, chicken oligonucleosomes 0.05 mg/mL, 3H-SAM 1 μM, 1 hour at 30° C. As for the experimental part: Exemplary compounds were tested for NSD2 inhibitory activity using a modified RBC HotSpot HMT Assay.
A reaction mixture was prepared by adding oligonucleosomes from chicken (0.05 mg/mL) to freshly prepared reaction buffer containing 50 mM Tris-HCl (pH 8.5), 50 mM NaCl, 5 mM MgCl2, 0.01% Brij35, 1 mM DTT, and 1% DMSO followed by the addition of recombinant human NSD2 (amino acids 2-end) with N-terminal His tag (2 nM; GenBank Accession No. NM_001042424; MW=155.5 kDa; expressed in Sf9 insect cells) and gentle mixing. The test compounds were diluted in DMSO (to 10 mM), and added to the reaction mixture in nanoliter amounts by using Acoustic Technology (Echo 550, LabCyte Inc. Sunnyvale, CA) and incubated for 20 minutes at room temperature. […] The reaction mixture was delivered to filter paper, and the methylated substrate was quantified by scintillation counting.
Data analysis was performed using Excel and GraphPad Prism software for IC50 curve fits. For additional information on the histone methyltransferase assay, see, for example, Horiuchi K Y, et al., “Assay Development for Histone Methyltransferases,” Assay Drug Dev Technol.

The structures appear in SMILES notation.

Chain of recombinant human NSD2 (amino acids 2-end) with N-terminal His tag (O96028 2-1365 limits assumed): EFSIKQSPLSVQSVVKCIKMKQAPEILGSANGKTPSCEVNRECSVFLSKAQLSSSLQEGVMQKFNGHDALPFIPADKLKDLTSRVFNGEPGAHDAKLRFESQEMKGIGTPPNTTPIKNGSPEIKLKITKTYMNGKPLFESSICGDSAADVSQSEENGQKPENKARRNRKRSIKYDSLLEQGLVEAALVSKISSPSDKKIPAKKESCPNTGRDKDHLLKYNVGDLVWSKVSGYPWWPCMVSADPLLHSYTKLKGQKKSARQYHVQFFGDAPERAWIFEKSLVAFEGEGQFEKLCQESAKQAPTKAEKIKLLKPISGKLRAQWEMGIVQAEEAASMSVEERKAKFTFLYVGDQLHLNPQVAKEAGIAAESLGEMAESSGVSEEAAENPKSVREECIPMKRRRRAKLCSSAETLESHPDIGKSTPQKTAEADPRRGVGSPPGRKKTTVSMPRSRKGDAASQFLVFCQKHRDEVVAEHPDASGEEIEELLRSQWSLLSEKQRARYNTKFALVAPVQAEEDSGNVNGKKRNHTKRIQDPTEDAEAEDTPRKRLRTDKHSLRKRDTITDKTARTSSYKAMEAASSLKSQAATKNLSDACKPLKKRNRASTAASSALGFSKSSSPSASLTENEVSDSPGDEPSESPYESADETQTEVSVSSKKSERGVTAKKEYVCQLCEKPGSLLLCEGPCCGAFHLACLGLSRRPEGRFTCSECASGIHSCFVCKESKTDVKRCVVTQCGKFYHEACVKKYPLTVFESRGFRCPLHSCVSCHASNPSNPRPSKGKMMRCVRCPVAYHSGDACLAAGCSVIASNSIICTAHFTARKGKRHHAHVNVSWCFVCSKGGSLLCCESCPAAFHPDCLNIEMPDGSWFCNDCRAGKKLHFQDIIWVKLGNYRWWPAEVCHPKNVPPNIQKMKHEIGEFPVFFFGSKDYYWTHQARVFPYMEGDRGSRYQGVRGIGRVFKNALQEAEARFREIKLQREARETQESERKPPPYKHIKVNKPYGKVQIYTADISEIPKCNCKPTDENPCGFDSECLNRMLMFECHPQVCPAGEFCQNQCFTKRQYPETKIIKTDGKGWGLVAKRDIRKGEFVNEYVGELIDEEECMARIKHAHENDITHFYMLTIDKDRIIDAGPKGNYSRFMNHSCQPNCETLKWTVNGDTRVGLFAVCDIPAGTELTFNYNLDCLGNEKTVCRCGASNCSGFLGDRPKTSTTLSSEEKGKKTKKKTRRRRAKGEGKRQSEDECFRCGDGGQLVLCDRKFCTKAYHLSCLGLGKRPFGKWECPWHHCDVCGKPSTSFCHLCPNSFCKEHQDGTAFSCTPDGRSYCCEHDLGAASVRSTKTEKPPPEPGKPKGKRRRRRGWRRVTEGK

With `Nc1ncnc2c1ncn2Cc1cc(-c2cc(F)c(OCCCCNc3cccc4c3C(=O)N(C3CCC(=O)NC3=O)C4=O)cc2F)ncc1N1CCC[C@](N)([C@H](O)C(F)F)C1` (stereo partly drawn) [I-61, 4-((4-(4-(5-((R)-3-amino-3-((S)-2,2-difluoro-1-hydroxyethyl)piperidin-1-yl)-4-((6-amino-9H-purin-9-yl)methyl)pyridin-2-yl)-2,5-difluorophenoxy)butyl)amino)-2-(2,6-dioxopiperidin-3-yl)isoindoline-1,3-dione], the IC50 (as a rule, the point on the concentration scale where inhibition reaches its midpoint) is less than 50 nM.
To `Nc1ncnc2c1ncn2Cc1cc(-c2cc(F)c(OCCCCCNc3cccc4c3C(=O)N(C3CCC(=O)NC3=O)C4=O)cc2F)ncc1N1CCC[C@](N)([C@H](O)C(F)F)C1` (stereo partly drawn) [I-62, 4-((5-(4-(5-((R)-3-amino-3-((S)-2,2-difluoro-1-hydroxyethyl)piperidin-1-yl)-4-((6-amino-9H-purin-9-yl)methyl)pyridin-2-yl)-2,5-difluorophenoxy)pentyl)amino)-2-(2,6-dioxopiperidin-3-yl)isoindoline-1,3-dione] belongs 50 to 100 nM.
To `Nc1ncnc2c1ncn2Cc1cc(-c2cc(F)c(OCCCCCCNc3cccc4c3C(=O)N(C3CCC(=O)NC3=O)C4=O)cc2F)ncc1N1CCC[C@](N)([C@H](O)C(F)F)C1` (stereo partly drawn) [I-63, 4-((6-(4-(5-((R)-3-amino-3-((S)-2,2-difluoro-1-hydroxyethyl)piperidin-1-yl)-4-((6-amino-9H-purin-9-yl)methyl)pyridin-2-yl)-2,5-difluorophenoxy)hexyl)amino)-2-(2,6-dioxopiperidin-3-yl)isoindoline-1,3-dione] belongs 100 to 1000 nM; to `Nc1ncnc2c1ncn2Cc1cc(-c2cc(F)c(OCC(=O)Nc3cccc4c3C(=O)N(C3CCC(=O)NC3=O)C4=O)cc2F)ncc1N1CCC[C@](N)([C@H](O)C(F)F)C1` (stereo partly shown) [I-64], less than 50 nM.
To `Nc1ncnc2c1ncn2Cc1cc(-c2cc(F)c(OCC(=O)NCCNc3cccc4c3C(=O)N(C3CCC(=O)NC3=O)C4=O)cc2F)ncc1N1CCC[C@](N)([C@H](O)C(F)F)C1` (stereo partly drawn) [I-65, 2-(4-(5-((R)-3-amino-3-((S)-2,2-difluoro-1-hydroxyethyl)piperidin-1-yl)-4-((6-amino-9H-purin-9-yl)methyl)pyridin-2-yl)-2,5-difluorophenoxy)-N-(2-((2-(2,6-dioxopiperidin-3-yl)-1,3-dioxoisoindolin-4-yl)amino)ethyl)acetamide] belongs less than 50 nM.
Take `Nc1ncnc2c1ncn2Cc1cc(-c2cc(F)c(OCC(=O)NCCCNc3cccc4c3C(=O)N(C3CCC(=O)NC3=O)C4=O)cc2F)ncc1N1CCC[C@](N)([C@H](O)C(F)F)C1` (stereo partly drawn) [I-66, 2-(4-(5-((R)-3-amino-3-((S)-2,2-difluoro-1-hydroxyethyl)piperidin-1-yl)-4-((6-amino-9H-purin-9-yl)methyl)pyridin-2-yl)-2,5-difluorophenoxy)-N-(3-((2-(2,6-dioxopiperidin-3-yl)-1,3-dioxoisoindolin-4-yl)amino)propyl)acetamide]: the half-maximal inhibitory concentration (IC50) was less than 50 nM.
To `Nc1ncnc2c1ncn2Cc1cc(-c2cc(F)c(OCCCCNc3cccc4c3C(=O)N(C3CCC(=O)NC3=O)C4=O)c(F)c2)ncc1N1CCC[C@](N)(c2ccccn2)C1` (stereo partly drawn) [I-67, 4-((4-(4-(5-((R)-3-amino-3-(pyridin-2-yl)piperidin-1-yl)-4-((6-amino-9H-purin-9-yl)methyl)pyridin-2-yl)-2,6-difluorophenoxy)butyl)amino)-2-(2,6-dioxopiperidin-3-yl)isoindoline-1,3-dione] belongs less than 50 nM; to `Nc1ncnc2c1ncn2Cc1cc(-c2cc(F)c(OCCCCNc3cccc4c3C(=O)N(C3CCC(=O)NC3=O)C4=O)c(F)c2)ncc1N1CCC[C@@](N)(c2ccccn2)C1` (stereo partly drawn) [I-68, 4-((4-(4-(5-((S)-3-amino-3-(pyridin-2-yl)piperidin-1-yl)-4-((6-amino-9H-purin-9-yl)methyl)pyridin-2-yl)-2,6-difluorophenoxy)butyl)amino)-2-(2,6-dioxopiperidin-3-yl)isoindoline-1,3-dione], greater than 1000 nM; to `Nc1ncnc2c1ncn2Cc1cc(-c2cc(F)c(OCCCCCNc3cccc4c3C(=O)N(C3CCC(=O)NC3=O)C4=O)c(F)c2)ncc1N1CCC[C@](N)(c2ccccn2)C1` (stereo partly drawn) [I-69, 4-((5-(4-(5-((R)-3-amino-3-(pyridin-2-yl)piperidin-1-yl)-4-((6-amino-9H-purin-9-yl)methyl)pyridin-2-yl)-2,6-difluorophenoxy)pentyl)amino)-2-(2,6-dioxopiperidin-3-yl)isoindoline-1,3-dione], less than 50 nM.
The result for `Nc1ncnc2c1ncn2Cc1cc(-c2cc(F)c(OCCCCCNc3cccc4c3C(=O)N(C3CCC(=O)NC3=O)C4=O)c(F)c2)ncc1N1CCC[C@@](N)(c2ccccn2)C1` (stereo partly shown) [I-70] reads greater than 1000 nM; that for `Nc1ncnc2c1ncn2Cc1cc(-c2cc(F)c(OCCCCCCNc3cccc4c3C(=O)N(C3CCC(=O)NC3=O)C4=O)c(F)c2)ncc1N1CCC[C@](N)(c2ccccn2)C1` (stereo partly drawn) [I-71, 4-((6-(4-(5-((R)-3-amino-3-(pyridin-2-yl)piperidin-1-yl)-4-((6-amino-9H-purin-9-yl)methyl)pyridin-2-yl)-2,6-difluorophenoxy)hexyl)amino)-2-(2,6-dioxopiperidin-3-yl)isoindoline-1,3-dione], less than 50 nM.
Turning to `COc1cc(F)c(-c2cc(Cn3cnc4c(NCCCCCNc5cccc6c5C(=O)N(C5CCC(=O)NC5=O)C6=O)ncnc43)c(N3CCC[C@](N)([C@H](O)C(F)F)C3)cn2)cc1F` (stereo partly drawn) [I-76, 4-((5-((9-((5-((R)-3-amino-3-((S)-2,2-difluoro-1-hydroxyethyl)piperidin-1-yl)-2-(2,5-difluoro-4-methoxyphenyl)pyridin-4-yl)methyl)-9H-purin-6-yl)amino)pentyl)amino)-2-(2,6-dioxopiperidin-3-yl)isoindoline-1,3-dione], the IC50 was greater than 1000 nM.
As to `COc1cc(F)c(-c2cc(Cn3cnc4c(NCCCCCCNc5cccc6c5C(=O)N(C5CCC(=O)NC5=O)C6=O)ncnc43)c(N3CCC[C@](N)([C@H](O)C(F)F)C3)cn2)cc1F` (stereo partly drawn) [I-77, 4-((6-((9-((5-((R)-3-amino-3-((S)-2,2-difluoro-1-hydroxyethyl)piperidin-1-yl)-2-(2,5-difluoro-4-methoxyphenyl)pyridin-4-yl)methyl)-9H-purin-6-yl)amino)hexyl)amino)-2-(2,6-dioxopiperidin-3-yl)isoindoline-1,3-dione], the IC50 was greater than 1000 nM.
Take `COc1c(F)cc(-c2cc(Cn3cnc4c(NCCCCCNc5cccc6c5C(=O)N(C5CCC(=O)NC5=O)C6=O)ncnc43)c(N3CCC[C@](N)(c4ccccn4)C3)cn2)cc1F` (stereo partly drawn) [I-79, 4-((5-((9-((5-((R)-3-amino-3-(pyridin-2-yl)piperidin-1-yl)-2-(3,5-difluoro-4-methoxyphenyl)pyridin-4-yl)methyl)-9H-purin-6-yl)amino)pentyl)amino)-2-(2,6-dioxopiperidin-3-yl)isoindoline-1,3-dione]: the IC50 lay within 100 to 1000 nM.
The result for `COc1c(F)cc(-c2cc(Cn3cnc4c(NCCCCCCNc5cccc6c5C(=O)N(C5CCC(=O)NC5=O)C6=O)ncnc43)c(N3CCC[C@](N)(c4ccccn4)C3)cn2)cc1F` (stereo partly drawn) [I-80, 4-((6-((9-((5-((R)-3-amino-3-(pyridin-2-yl)piperidin-1-yl)-2-(3,5-difluoro-4-methoxyphenyl)pyridin-4-yl)methyl)-9H-purin-6-yl)amino)hexyl)amino)-2-(2,6-dioxopiperidin-3-yl)isoindoline-1,3-dione] reads greater than 1000 nM; that for `COc1c(F)cc(-c2cc(Cn3cnc4c(NCCCCCCNc5cccc6c5C(=O)N(C5CCC(=O)NC5=O)C6=O)ncnc43)c(N3CCC[C@@](N)(c4ccccn4)C3)cn2)cc1F` (stereo partly drawn) [I-81, 4-((6-((9-((5-((S)-3-amino-3-(pyridin-2-yl)piperidin-1-yl)-2-(3,5-difluoro-4-methoxyphenyl)pyridin-4-yl)methyl)-9H-purin-6-yl)amino)hexyl)amino)-2-(2,6-dioxopiperidin-3-yl)isoindoline-1,3-dione], 50 to 100 nM; that for `COc1c(F)cc(-c2cc(Cn3cnc4c(NCCCCCCCNc5cccc6c5C(=O)N(C5CCC(=O)NC5=O)C6=O)ncnc43)c(N3CCC[C@](N)(c4ccccn4)C3)cn2)cc1F` (stereo partly drawn) [I-82, 4-((7-((9-((5-((R)-3-amino-3-(pyridin-2-yl)piperidin-1-yl)-2-(3,5-difluoro-4-methoxyphenyl)pyridin-4-yl)methyl)-9H-purin-6-yl)amino)heptyl)amino)-2-(2,6-dioxopiperidin-3-yl)isoindoline-1,3-dione], greater than 1000 nM.
The result for `Cc1ncsc1-c1ccc(CNC(=O)[C@@H]2C[C@@H](O)CN2C(=O)[C@@H](NC(=O)CCOCCOCCOCCOc2cc(F)c(-c3cc(Cn4cnc5c(N)ncnc54)c(N4CCC[C@](N)([C@H](O)C(F)F)C4)cn3)cc2F)C(C)(C)C)cc1` [I-84] reads 100 to 1000 nM.
The result for `Cc1ncsc1-c1ccc(CNC(=O)[C@@H]2C[C@@H](O)CN2C(=O)[C@@H](NC(=O)CCCCCCCCCCCOc2cc(F)c(-c3cc(Cn4cnc5c(N)ncnc54)c(N4CCC[C@](N)([C@H](O)C(F)F)C4)cn3)cc2F)C(C)(C)C)cc1` [I-85] reads 100 to 1000 nM.

The values above are taken from US20250171454A1, “HETEROBIFUNCTIONAL […] AMINOPURINE AND RELATED COMPOUNDS AND THEIR USE IN NSD2 DEGRADATION AND TREATING MEDICAL CONDITIONS” (K36 Therapeutics, Inc., priority 2023, published 2025).
